Reference: BindingDB's records for PubMed 39291025 (PI Health Sciences)

experiment: Inhibition of cGAS in human THP-1 cells […] incubated for 18 hrs by Lucia luciferase reporter based counter assay

SMILES | IC50
C[C@@H]1CN2CC[C@H]1n1c(nc3cc(Cl)ccc31)O[C@H]1C[C@@H](C(=O)O)N(C1)c1nc(nc3c1oc1ccccc13)CCOCCCC2=O | > 10 µM
CC(=O)[C@@H]1C[C@H]2CN1c1nc(nc3c1oc1ccccc13)CCOCCCC(=O)N1CC[C@@H]([C@@H](C)C1)n1c(nc3cc(Cl)ccc31)O2 | > 10 µM
C[C@H]1CN2CC[C@@H]1n1c(nc3cc(Cl)ccc31)O[C@H]1C[C@@H](C(=O)O)N(C1)c1nc(nc3c1oc1cc(Cl)ccc13)CCOCCCC2=O | 9.5 µM
C[C@H]1CN2CC[C@@H]1n1c(nc3ccccc31)O[C@H]1C[C@@H](C(=O)O)N(C1)c1nc(nc3c1oc1ccccc13)C(F)(F)CCCCC(F)(F)C2=O | 6.6 µM
C[C@H]1CN2CC[C@@H]1n1c(nc3ccccc31)O[C@H]1C[C@@H](C(=O)O)N(C1)c1nc(nc3c1oc1cc(Cl)ccc13)C(F)(F)CCCOCC2=O | > 10 µM
Cc1cccc2c1nc1n2[C@@H]2CCN(C[C@H]2C)C(=O)CCCCCC(F)(F)c2nc(c3oc4ccccc4c3n2)N2C[C@H](C[C@H]2C(=O)O)O1 | 6 µM
C[C@H]1CN2CC[C@H]1n1c(nc3ccccc31)O[C@H]1C[C@@H](C(=O)O)N(C1)c1nc(nc3c1oc1ccccc13)C(F)(F)COCCCCC2=O | 14 µM
C[C@H]1CN2CC[C@@H]1n1c(nc3cc(Cl)ccc31)O[C@H]1C[C@@H](C(=O)O)N(C1)c1nc(nc3c1oc1ccccc13)C(F)(F)OCCCCC2=O | > 10 µM
C[C@@H]1CN2CC[C@H]1n1c(nc3ccccc31)O[C@H]1C[C@@H](C(=O)O)N(C1)c1nc(nc3c1oc1ccccc13)CCCCCOC2=O | 8.2 µM
C[C@H]1CN2CC[C@@H]1n1c(nc3ccccc31)O[C@H]1C[C@@H](C(=O)O)N(C1)c1nc(nc3c1oc1ccccc13)CCCCCN(C)C2=O | 7.3 µM
